target: T1, Potassium channel subfamily K member 2 (Homo sapiens, UniProt O95069); test: TREK-1 Manual Patch Clamp (hMPC) assay
T1 sequence (O95069 whole entry): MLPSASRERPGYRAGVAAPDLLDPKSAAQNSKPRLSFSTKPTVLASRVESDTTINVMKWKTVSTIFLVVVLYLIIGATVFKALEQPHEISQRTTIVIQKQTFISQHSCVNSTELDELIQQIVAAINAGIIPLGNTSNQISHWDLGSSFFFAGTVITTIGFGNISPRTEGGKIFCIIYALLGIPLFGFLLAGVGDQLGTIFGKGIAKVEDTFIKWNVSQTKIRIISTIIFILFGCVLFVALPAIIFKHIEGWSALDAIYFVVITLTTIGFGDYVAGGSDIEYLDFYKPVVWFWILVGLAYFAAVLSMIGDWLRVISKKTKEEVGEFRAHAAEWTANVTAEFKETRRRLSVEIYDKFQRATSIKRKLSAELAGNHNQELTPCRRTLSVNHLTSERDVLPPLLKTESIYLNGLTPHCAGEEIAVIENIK
Experimental: TBDCHO-K1 cells stably expressing human TREK-1 or HEK293 cells stably expressing human TREK-2 are plated on glass coverslips, and voltage clamped in the whole-cell configuration of the patch clamp technique. Cells were voltage clamped at a holding potential of −80 mV and the stepped to 0 mV for 500 msec. The voltage was subsequently ramped from −120 mV to +80 mV over a 500 msec duration. This step-ramp protocol was repeated every 10 sec.

IC50 | SMILES
32 nM | Cc1cc(C#Cc2cccc(F)c2)nc(C)c1NC(=O)c1cc(NC(=O)OC(C)(C)C)ccc1Cl [US20240190824, Compound 11]

target: T1, Potassium channel subfamily K member 2; test: Thallium flux assay

IC50 | SMILES
410 nM | Cc1cc(C#Cc2cccc(F)c2)nc(C)c1NC(=O)c1cc(NC(=O)OC(C)(C)C)ccc1Cl [US20240190824, Compound 11]
210 nM | Cc1cc(C#Cc2ccccc2)cc(F)c1NC(=O)c1cc(NC(=O)OC(C)(C)C)ccc1Cl [US20240190824, Compound 29]
220 nM | CC(C)(C)OC(=O)Nc1ccc(Cl)c(C(=O)Nc2c(F)cc(C#Cc3ccccc3)cc2F)c1 [US20240190824, Compound 30]
390 nM | Cc1cc(COc2ccc(Cl)c(C(=O)Nc3ncc(C#Cc4ccccc4)cc3C)c2)on1 [US20240190824, Compound 83]
490 nM | Cc1cc(C#Cc2ccccc2)cnc1NC(=O)c1cc(OCC2CCOC2)ccc1Cl (stereo unspecified) [US20240190824, Compound 85]

— BindingDB's records for patent US20240190824 (Ono Pharmaceutical Co., 2024)
